This is an account of results in patent publication US20160375006A1, “USES OF PARALOG-SELECTIVE INHIBITORS OF GSK3 KINASES” (priority 2012, published 2016).

In test [1] the target is T1, GSK3β (Homo sapiens, UniProt P49841).
In test [2] the target is T1, GSK3β. Briefly: biochemical.
For test [3], the target named is GSK3α (Homo sapiens, UniProt P49840). The experiment in a line: biochemical.
Description: Reactions were terminated by the addition of 10 mM EDTA. Substrate and product were separated electrophoretically and fluorescence intensity of the substrate and product was determined by Labchip EZ Reader II (Caliper Life Sciences, MA). The kinase activity was measured as percent conversion. The reactions were performed in duplicate for each sample. […] The results were analyzed by Genedata Assay Analyzer. The percent inhibition was plotted against the compound concentration and the IC50 value was determined from the logistic dose-response curve fitting.
[4] abbreviates: Caliper assay, GSK3β over GSK3α.

Like-named read-outs stand apart in the source and are kept apart here.

T1 sequence (P49841 whole entry): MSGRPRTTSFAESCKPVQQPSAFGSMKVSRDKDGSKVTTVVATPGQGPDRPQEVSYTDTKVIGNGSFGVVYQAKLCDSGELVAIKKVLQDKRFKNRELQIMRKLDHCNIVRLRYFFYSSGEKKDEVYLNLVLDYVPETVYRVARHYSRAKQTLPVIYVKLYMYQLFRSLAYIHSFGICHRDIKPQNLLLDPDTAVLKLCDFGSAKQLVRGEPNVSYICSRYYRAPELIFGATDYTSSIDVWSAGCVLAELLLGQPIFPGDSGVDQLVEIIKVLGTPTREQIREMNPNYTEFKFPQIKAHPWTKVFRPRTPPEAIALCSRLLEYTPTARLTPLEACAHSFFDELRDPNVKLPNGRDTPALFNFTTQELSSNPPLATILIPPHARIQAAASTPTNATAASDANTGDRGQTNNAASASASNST
Sequence of GSK3α (P49840 whole entry): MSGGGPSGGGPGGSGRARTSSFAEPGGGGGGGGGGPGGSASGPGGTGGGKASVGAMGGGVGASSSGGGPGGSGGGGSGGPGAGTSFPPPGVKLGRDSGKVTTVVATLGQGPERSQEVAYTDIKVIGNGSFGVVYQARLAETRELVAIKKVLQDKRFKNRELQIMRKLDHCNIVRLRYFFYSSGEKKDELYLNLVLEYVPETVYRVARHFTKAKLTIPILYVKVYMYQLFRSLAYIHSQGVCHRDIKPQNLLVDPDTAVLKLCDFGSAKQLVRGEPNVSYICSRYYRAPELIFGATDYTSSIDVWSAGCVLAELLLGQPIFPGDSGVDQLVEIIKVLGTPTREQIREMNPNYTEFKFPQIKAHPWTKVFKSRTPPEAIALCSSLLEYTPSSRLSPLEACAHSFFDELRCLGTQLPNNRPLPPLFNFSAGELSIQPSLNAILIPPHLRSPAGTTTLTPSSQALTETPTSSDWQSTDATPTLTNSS

For `CC1(C)CC(=O)C2=C(C1)Nc1n[nH]c(C3CC(F)(F)C3)c1[C@@]21COc2ccccc21` [Compound 256], the GSK3β fold selectivity in test [1] was 6.5 fold. For the same molecule, the IC50 in test [2] is 2 nM; in test [3], 13 nM.
As to `CC1(C)CC(=O)C2=C(C1)Nc1n[nH]c(C3CC(F)(F)C3)c1[C@]21COc2ccccc21` [Compound 257], the GSK3β fold selectivity in test [1] worked out at 16.1 fold. In addition, the IC50 was found to be 21 nM in test [2] and 339 nM in test [3].
Taken in the same sequence, the figures for `CC1(C)CC(=O)C2=C(C1)Nc1n[nH]c(C3CC(F)(F)C3)c1[C@@]21CCc2ccccc21` [Compound 259] were 4.4 fold, 20 nM and 87 nM.
For `CC1(C)CC(=O)C2=C(C1)Nc1n[nH]c(C3CC(F)(F)C3)c1[C@]21CCc2ccccc21` [Compound 260] the same measures were 8.4 fold, 53 nM and 444 nM.
Taken in the same sequence, the figures for `CC1(C)CC(=O)C2=C(C1)Nc1n[nH]c(C3CC(F)(F)C3)c1[C@@]21CCc2c(F)cccc21` [Compound 262] were 4.4 fold, 124 nM and 542 nM.
`CC1(C)CC(=O)C2=C(C1)Nc1n[nH]c(C3CC(F)(F)C3)c1[C@@]21CCc2cc(F)ccc21` [Compound 265] returned a GSK3β fold selectivity in test [1] of 8.8 fold. Further, the IC50 was 81 nM in test [2] and 710 nM in test [3].
In test [1], `CC1(C)CC(=O)C2=C(C1)Nc1n[nH]c(C3CC(F)(F)C3)c1[C@]21CCc2cc(F)ccc21` [Compound 266] yielded a GSK3β fold selectivity of 9.0 fold. The IC50 stood at 38 nM in test [2] and 342 nM in test [3].
`CC1(C)CC(=O)C2=C(C1)Nc1n[nH]c(C3CC(F)(F)C3)c1C21CCCc2ccccc21` (stereo not drawn) [Compound 267] gave a GSK3β fold selectivity in test [1] of 9.0 fold. Besides, the results for the half-maximal inhibitory concentration (IC50) in test [2] and in test [3] were 38 nM and 342 nM, respectively.
In turn, `CC1(C)CC(=O)C2=C(C1)Nc1n[nH]c(C3CC(F)(F)C3)c1[C@@]21CCOc2ccccc21` [Compound 269] registered a GSK3β fold selectivity in test [1] of 9.1 fold. The IC50 was 18 nM in test [2] and 164 nM in test [3].
On to `CC1(C)CC(=O)C2=C(C1)Nc1n[nH]c(C3CC(F)(F)C3)c1[C@]21CCOc2ccccc21` [Compound 270], for which the GSK3β fold selectivity in test [1] is on record as 7.8 fold. Further, the IC50 was 210 nM in test [2] and 1630 nM in test [3].
In test [1] (setting [4]), `CCC1(c2ccccc2)C2=C(CC(C)(C)CC2=O)Nc2n[nH]c(CC(C)(C)C)c21` (stereo not drawn) [Compound 274] had a GSK3β fold selectivity of 3.4 fold. Moreover, the IC50 was 100 nM in test [2] and 340 nM in test [3].
`CN1C(=O)C2(C3=C(CC(C)(C)CC3=O)Nc3n[nH]c(CC(C)(C)C)c32)c2ccccc21` (stereo not drawn) [Compound 287] returned a GSK3β fold selectivity in test [1] (setting [4]) of 8.8 fold. In addition, the IC50 in test [2] turned out to be 939 nM; in test [3], 8300 nM.
Regarding `COc1ccccc1[C@H]1C2=C(CC(C)(C)CC2=O)Nc2n[nH]c(C(C)C)c21` [Compound 295], the GSK3β fold selectivity in test [1] (setting [4]) was 8.1 fold. Also, the IC50 in test [2] came to 57 nM; in test [3] it was 462 nM.
In test [1] (setting [4]), `CC(C)c1[nH]nc2c1C(C)(c1ccccc1)C1=C(CC(C)(C)CC1=O)N2` (stereo not drawn) [Compound 296] came in with a GSK3β fold selectivity of 3.2 fold. The IC50 in test [2] was 76 nM; in test [3], 241 nM.
With `CCC(C)c1[nH]nc2c1C(C)(c1ccccc1)C1=C(CC(C)(C)CC1=O)N2` (stereo not drawn) [Compound 299], in test [1] (setting [4]), the GSK3β fold selectivity is 3.1 fold. Besides, the 50% inhibitory concentration (IC50) in test [2] was 90 nM; in test [3], 277 nM.
`CCc1ccccc1[C@@H]1C2=C(CC(C)(C)CC2=O)Nc2n[nH]c(C(C)C)c21` [Compound 322] gave a GSK3β fold selectivity in test [1] (setting [4]) of 11.0 fold. Also, the IC50 in test [2] amounted to 42 nM; in test [3], 462 nM.
`COc1cc(F)ccc1[C@H]1C2=C(CC(C)(C)CC2=O)Nc2n[nH]c(C(C)C)c21` [Compound 323]: the GSK3β fold selectivity in test [1] (setting [4]) came out at 13.6 fold. Also, the IC50 in test [2] worked out at 20 nM; in test [3], 271 nM.

For orientation: IC50 means the point on the concentration scale where inhibition reaches its midpoint.
